The subject of the assay is Escherichia coli ATCC 25922. The assay is described as follows: 50% growth inhibitory concentration (IC50) determination, Iso-Sensitest broth dilution. It is filed as cell-based. The conditions noted are these: Escherichia coli, ATCC25922, 16 h, strain Escherichia coli ATCC 25922; 10-point broth dilution, optical density at 600 nm over 16 h; read-out: Escherichia coli growth inhibition IC50. In short, it runs like this:
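10-point twofold Iso-Sensitest broth dilution (e.g. 50 to 0.097 μM final) with DMSO stocks, incubated at 35±2° C. Growth followed by OD 600 nm every 20 min over 16 h; IC50 derived from growth inhibition during logarithmic phase.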
In general terms: In broth dilution the organism is exposed to a series of concentrations in liquid medium.

As for `Cc1nc(N(C)C)cc2c1CC(CNCCC1CN(c3ccc4c(n3)NC(=O)CO4)C(=O)O1)C2` (stereo not drawn) [Example 419, 6-[5-[2-[[3-(Dimethylamino)-1-methyl-6,7-dihydro-5H-cyclopenta[c]pyridin-6-yl]methylamino]ethyl]-2-oxo-1,3-oxazolidin-3-yl]-4H-pyrido[3,2-b][1,4]oxazin-3-one], the IC50 was found to be 225 nM.

As to `CC(C)(N)COc1cc(C#N)c2c(c1)CC(CNCCC1CN(c3ccc4c(n3)NC(=O)CO4)C(=O)O1)C2` (stereo not drawn) [Example 203, 6-(2-amino-2-methylpropoxy)-2-(((2-(2-oxo-3-(3-oxo-3,4-dihydro-2H-pyrido[3,2-b][1,4]oxazin-6-yl)oxazolidin-5-yl)ethyl)amino)methyl)-2,3-dihydro-1H-indene-4-carbonitrile; 2,2,2-trifluoroacetic acid], the IC50 was under 97.7 nM.

On to `Cc1nccc2c1CC(CNCCC1CN(c3ccc4c(n3)NC(=O)CO4)C(=O)O1)C2O` (racemic) [Example 43, 6-[2-oxo-5-[2-[[rac-(5,6-trans)-5-hydroxy-1-methyl-6,7-dihydro-5H-cyclopenta[c]pyridin-6-yl]methylamino]ethyl]-1,3-oxazolidin-3-yl]-4H-pyrido[3,2-b][1,4]oxazin-3-one; formic acid], for which the IC50 was found to be 4140 nM.

For the molecule `O=C1COc2ncc(N3CC(CCNCC4Cc5ncc(F)c(Cl)c5C4)OC3=O)nc2N1` (stereo not drawn) [Example 319, 6-[5-[2-[(4-chloro-3-fluoro-6,7-dihydro-5H-cyclopenta[b]pyridin-6-yl)methylamino]ethyl]-2-oxo-1,3-oxazolidin-3-yl]-4H-pyrazino[2,3-b][1,4]oxazin-3-one; formic acid], the IC50 is under 97.7 nM.

Turning to `Cn1nnnc1COc1cc(C#N)c2c(c1)CC(CNCCC1CN(c3cnc4c(n3)NC(=O)CO4)C(=O)O1)C2` (stereo not drawn) [Example 391, 6-[(1-methyltetrazol-5-yl)methoxy]-2-[[2-[2-oxo-3-(3-oxo-4H-pyrazino[2,3-b][1,4]oxazin-6-yl)-1,3-oxazolidin-5-yl]ethylamino]methyl]-2,3-dihydro-1H-indene-4-carbonitrile], the IC50 is 258 nM.

On to `NC1(COc2cc(Cl)c3c(c2)CC(CNCCC2CN(c4ccc5c(n4)NC(=O)CO5)C(=O)O2)C3)CC1` (stereo not drawn) [Example 178, 6-[5-[2-[[6-[(1-aminocyclopropyl)methoxy]-4-chloro-2,3-dihydro-1H-inden-2-yl]methylamino]ethyl]-2-oxo-1,3-oxazolidin-3-yl]-4H-pyrido[3,2-b][1,4]oxazin-3-one], for which the IC50 is under 97.7 nM.

Consider `Cc1nc(OCC2CNC(=O)CO2)c(C)c2c1CC(CNCCC1CN(c3ccc4c(n3)NC(=O)CO4)C(=O)O1)C2` (stereo not drawn) [Example 101, 6-[5-[2-[[1,4-dimethyl-3-[(5-oxomorpholin-2-yl)methoxy]-6,7-dihydro-5H-cyclopenta[c]pyridin-6-yl]methylamino]ethyl]-2-oxo-1,3-oxazolidin-3-yl]-4H-pyrido[3,2-b][1,4]oxazin-3-one], for which the 50% inhibitory concentration (IC50) was 1390 nM.

`N[C@H]1c2cccc(Cl)c2C[C@@H]1CNCC[C@H]1CN(c2cnc3c(n2)NC(=O)CO3)C(=O)O1` [Example 401, 6-[(5S)-5-[2-[[(1R,2R)-1-amino-4-chloro-2,3-dihydro-1H-inden-2-yl]methylamino]ethyl]-2-oxo-1,3-oxazolidin-3-yl]-4H-pyrazino[2,3-b][1,4]oxazin-3-one]: the IC50 is under 97.7 nM.

With `N#Cc1ncc(F)c2c1CC(CNCCC1CN(c3ccc4c(n3)NC(=O)CO4)C(=O)O1)C2` (stereo not drawn) [Example 37, 4-fluoro-6-[[2-[2-oxo-3-(3-oxo-4H-pyrido[3,2-b][1,4]oxazin-6-yl)-1,3-oxazolidin-5-yl]ethylamino]methyl]-6,7-dihydro-5H-cyclopenta[c]pyridine-1-carbonitrile; formic acid], the IC50 was under 97.7 nM.

In the case of `CS(=O)(=O)CCOc1cc(F)c2c(c1)CC(CNCCC1CN(c3cnc4c(n3)NC(=O)CO4)C(=O)O1)C2` (stereo not drawn) [Example 353, 6-[5-[2-[[4-fluoro-6-(2-methylsulfonylethoxy)-2,3-dihydro-1H-inden-2-yl]methylamino]ethyl]-2-oxo-1,3-oxazolidin-3-yl]-4H-pyrazino[2,3-b][1,4]oxazin-3-one; formic acid], the IC50 worked out at 170 nM.

For `NC1(COc2ccc3c(c2Cl)CC(CNCCC2CN(c4ccc5c(n4)NC(=O)CO5)C(=O)O2)C3)CC1` (stereo not drawn) [Example 117, 6-[5-[2-[[5-[(1-aminocyclopropyl)methoxy]-4-chloro-2,3-dihydro-1H-inden-2-yl]methylamino]ethyl]-2-oxo-1,3-oxazolidin-3-yl]-4H-pyrido[3,2-b][1,4]oxazin-3-one; formic acid], the IC50 is under 97.7 nM.

As for `O=C1COc2ncc(N3CC4(CCN(CC5Cc6ccnc(Cl)c6C5)CC4)OC3=O)nc2N1` (stereo not drawn) [Example 373, 6-[8-[(1-chloro-6,7-dihydro-5H-cyclopenta[c]pyridin-6-yl)methyl]-2-oxo-1-oxa-3,8-diazaspiro[4.5]decan-3-yl]-4H-pyrazino[2,3-b][1,4]oxazin-3-one], the IC50 was under 97.7 nM.

Take `CS(=O)(=O)NCCOc1cc(C#N)c2c(c1)CC(CNCCC1CN(c3ccc4c(n3)NC(=O)CO4)C(=O)O1)C2` (stereo not drawn) [Example 115, N-[2-[[7-cyano-2-[[2-[2-oxo-3-(3-oxo-4H-pyrido[3,2-b][1,4]oxazin-6-yl)-1,3-oxazolidin-5-yl]ethylamino]methyl]-2,3-dihydro-1H-inden-5-yl]oxy]ethyl]methanesulfonamide]: the IC50 was determined as 261 nM.

For the molecule `Cc1ncc(Cl)c2c1CC(CNCCC1CN(c3cnc4c(n3)NC(=O)CO4)C(=O)O1)C2N` (racemic) [Example 263, 6-[2-oxo-5-[2-[[rac-5,6-trans-5-amino-4-chloro-1-methyl-6,7-dihydro-5H-cyclopenta[c]pyridin-6-yl]methylamino]ethyl]-1,3-oxazolidin-3-yl]-4H-pyrazino[2,3-b][1,4]oxazin-3-one], the IC50 was 127 nM.

Take `CC(N)COc1ccc2c(c1C#N)CC(CNCCC1CN(c3ccc4c(n3)NC(=O)CO4)C(=O)O1)C2` (stereo not drawn) [Example 134, 5-(2-aminopropoxy)-2-[[2-[2-oxo-3-(3-oxo-4H-pyrido[3,2-b][1,4]oxazin-6-yl)-1,3-oxazolidin-5-yl]ethylamino]methyl]-2,3-dihydro-1H-indene-4-carbonitrile; formic acid]: the IC50 was determined as 114 nM.

`O=C1COc2ccc(N3CC(CCNCC4Cc5cncc(F)c5C4)OC3=O)nc2N1` (stereo not drawn) [Example 288, 6-[5-[2-[(4-fluoro-6,7-dihydro-5H-cyclopenta[c]pyridin-6-yl)methylamino]ethyl]-2-oxo-1,3-oxazolidin-3-yl]-4H-pyrido[3,2-b][1,4]oxazin-3-one]: the IC50 was under 97.7 nM.

For the molecule `CNC(=O)COc1cc(Cl)c2c(c1)C(N)C(CNCCC1CN(c3ccc4c(n3)NC(=O)CO4)C(=O)O1)C2` (racemic) [Example 400, N-methyl-2-[[rac-2,3-trans-3-amino-7-chloro-2-[[2-[2-oxo-3-(3-oxo-4H-pyrido[3,2-b][1,4]oxazin-6-yl)-1,3-oxazolidin-5-yl]ethylamino]methyl]-2,3-dihydro-1H-inden-5-yl]oxy]acetamide; formic acid], the IC50 amounted to 365 nM.

Regarding `Cc1c(OCC2(N)CC2)nc(C#N)c2c1CC(CNCCC1CN(c3ccc4c(n3)NC(=O)CO4)C(=O)O1)C2` (stereo not drawn) [Example 213, 3-[(1-aminocyclopropyl)methoxy]-4-methyl-6-[[2-[2-oxo-3-(3-oxo-4H-pyrido[3,2-b][1,4]oxazin-6-yl)-1,3-oxazolidin-5-yl]ethylamino]methyl]-6,7-dihydro-5H-cyclopenta[c]pyridine-1-carbonitrile], the IC50 was under 97.7 nM.

As to `NC1(COc2cc(F)c3c(c2)CC(CNCCC2CN(c4cnc5c(n4)NC(=O)CO5)C(=O)O2)C3)CC1` (stereo not drawn) [Example 161, 6-[5-[2-[[6-[(1-aminocyclopropyl)methoxy]-4-fluoro-2,3-dihydro-1H-inden-2-yl]methylamino]ethyl]-2-oxo-1,3-oxazolidin-3-yl]-4H-pyrazino[2,3-b][1,4]oxazin-3-one], the IC50 was under 97.7 nM.

`Cc1ncc(F)c2c1CC(CN1CCC3(CN(c4ccc5c(n4)NC(=O)CO5)C(=O)O3)C(CO)C1)C2` (stereo not drawn) [Example 277, 6-[8-[(4-fluoro-1-methyl-6,7-dihydro-5H-cyclopenta[c]pyridin-6-yl)methyl]-6-(hydroxymethyl)-2-oxo-1-oxa-3,8-diazaspiro[4.5]decan-3-yl]-4H-pyrido[3,2-b][1,4]oxazin-3-one]: the IC50 was 628 nM.

In the case of `CNC(=O)COc1nc(C)c2c(c1C)CC(CNCCC1CN(c3cnc4c(n3)NC(=O)CO4)C(=O)O1)C2` (stereo not drawn) [Example 111, 2-[[1,4-dimethyl-6-[[2-[2-oxo-3-(3-oxo-4H-pyrazino[2,3-b][1,4]oxazin-6-yl)-1,3-oxazolidin-5-yl]ethylamino]methyl]-6,7-dihydro-5H-cyclopenta[c]pyridin-3-yl]oxy]-N-methylacetamide], the IC50 was determined as 489 nM.

As for `NC1c2cc(OCC3(N)CC3)cc(Cl)c2CC1CNCCC1CN(c2ccc3c(n2)NC(=O)CO3)C(=O)O1` (racemic) [Example 273, 6-[2-Oxo-5-[2-[[rac-1,2-trans-1-amino-6-[(1-aminocyclopropyl)methoxy]-4-chloro-2,3-dihydro-1H-inden-2-yl]methylamino]ethyl]-1,3-oxazolidin-3-yl]-4H-pyrido[3,2-b][1,4]oxazin-3-one; formic acid], the IC50 came out at 148 nM.

Regarding `N#Cc1nccc2c1CC(CNCCC1CN(c3ccc4c(n3)NC(=O)CO4)C(=O)O1)C2N` (racemic) [Example 133, rac-5,6-trans-5-amino-6-[[2-[2-oxo-3-(3-oxo-4H-pyrido[3,2-b][1,4]oxazin-6-yl)-1,3-oxazolidin-5-yl]ethylamino]methyl]-6,7-dihydro-5H-cyclopenta[c]pyridine-1-carbonitrile; formic acid], the IC50 was 1380 nM.

With `Cc1ncc(F)c2c1CC(C(C)NCC[C@@H]1CN(c3cnc4c(n3)NC(=O)CO4)C(=O)O1)C2` (stereo partly drawn) [Example 331], the IC50 was under 97.7 nM.

The IC50 is the concentration that gives 50% inhibition.

Source of the values: US20230167127A1, “COMPOUNDS AND THEIR USE IN THE TREATMENT OF BACTERIAL INFECTION” (Hoffmann-La Roche Inc., priority 2020, published 2023).
